According to article PMC9436767, “Optical control of the β2-adrenergic receptor with opto-prop-2: A cis-active azobenzene analog of propranolol” (iScience, 2022):

Key:
[1] = Cis-to-trans thermal relaxation, Arrhenius extrapolation; assay type: physicochemical; details: PSScis sample 25 μM in HBSS buffer with 1% DMSO; Arrhenius extrapolation to 20 °C
Procedure: Solubility in buffer was explored for all compounds using nephelometry ([Bevan and Lloyd, 2000]) and these studies indicate good solubility of all azobenzene photoswiches up to at least 100 μM (Figure S1). […] For all compounds, 360 nm induces a large change in absorbance spectrum compared with the non-illuminated (dark) compounds (Table 1, Figure 2A, and S1), indicating photoisomerization to the cis-isomer. The absorbance peak (λmax) of Opto-prop-1-3 ranged between 319 and 347 nm for the trans-isomers and between 423 and 429 for the cis-isomers (Table 1), as is typical for azobenzene compounds ([Hauwert et al., 2018]). […] The photochemical conversions were determined by continuous illumination of the Opto-prop compounds with near UV-light (360 ± 20 nm) as 10-mM solutions in DMSO. Based on LCMS analysis, it was observed that all compounds obtained a high level of conversion to the cis-isomer with a photostationary state (PSS) of >88 area % cis-isomer (i.e. PSScis; Table 1). Subsequent back-switching to PSStrans with 434 nm maintained 22–29 area % cis-isomer (Table 1). The thermal relaxation of the PSScis state of the photoswitchable ligands was monitored over time by measuring absorbance at 254 nm. Only minor thermal relaxation to the trans-isomer could be detected at 20°C (not shown). An estimate of the relaxation rate at 20 °C was determined using a method by Priimagi et al. ([Ahmed et al., 2017]), which was performed in Hanks’ balanced salt solution (HBSS) using increased temperatures to enhance the speed of thermal relaxation. The Opto-prop ligands are all very stable as cis-isomer after illumination, with thermal relaxation half-lives of >10 days at 20 °C (See Table 1 and Figure S1).
Cis-to-trans thermal relaxations were performed in the dark at 25 μM of the PSS360 state of the Opto-prop-1, -2 or -3 in HBSS buffer with 1% DMSO at various temperatures (60°C, 70°C and 80°C). Absorbance was repeatedly measured at 320, 320 and 347 nm for Opto-prop-1, -2 or -3, respectively, with 60 s intervals.

β2-AR = β2-AR (Homo sapiens, UniProt P07550); test: Kinetic β-arrestin2 recruitment to β2-AR with 360 nm light flashes; assay type: cell-based; parameters: expressed in transfected cells; host or cells: HEK293T, transient (PEI); details: 1 μM with 32 nM isoprenaline; six 5-min cycles of 360 nm flashes
β2-AR, sequence (P07550 whole entry): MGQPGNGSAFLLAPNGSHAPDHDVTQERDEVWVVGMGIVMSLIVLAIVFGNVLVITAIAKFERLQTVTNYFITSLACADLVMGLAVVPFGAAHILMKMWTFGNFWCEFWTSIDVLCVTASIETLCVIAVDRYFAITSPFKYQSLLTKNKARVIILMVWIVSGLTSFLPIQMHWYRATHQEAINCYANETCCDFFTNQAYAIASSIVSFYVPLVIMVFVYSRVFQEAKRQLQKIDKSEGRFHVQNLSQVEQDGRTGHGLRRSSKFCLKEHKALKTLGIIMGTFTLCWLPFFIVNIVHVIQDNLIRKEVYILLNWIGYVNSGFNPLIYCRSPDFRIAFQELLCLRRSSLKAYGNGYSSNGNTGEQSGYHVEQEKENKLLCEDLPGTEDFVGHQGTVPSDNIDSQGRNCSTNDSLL
Procedure: It was further explored whether the activity of the β2-AR could be modulated dynamically by treating cells with light (Figure 5). Cells that overexpress a split-nanoluc luciferase biosensor system for βarrestin2 recruitment to the β2-AR were treated with isoprenaline in the presence of Opto-prop-2. A time-dependent activation of the receptor is observed for 10 min after which cells were pulsed with light flashes of 360 nm.
Cells incubated with Opto-prop-2 are depicted in green and magenta before and after illumination, respectively. Data points represent the mean ± SEM of the three experiments, normalized to the luminescence at 10 min as 100%.
HEK293T cells were transiently transfected with 2 μg plasmid DNA per million using linear PEI at a DNA:PEI weight-ratio of 1:6. ([Zarca et al., 2021]) The used DNA plasmids were β2-AR-SmBit (0.4 μg), β-arrestin2-LgBit (0.6 μg) and pcDEF3 (non-coding DNA; 1 μg). The DNA/PEI transfection mix in 150 mM NaCL was vortexed and incubated for 15 min before adding it to a cell suspension with a final concentration of 300,000 cell/mL. Cells were then immediately plated 30,000 cells/well on a white 96-well plate (Greiner). […] After 10 min the protocol setting were switched to treat cells repeadetly with 360 nm light flashes (40 times 200 flashes over 5 min) followed after each 5 min cycle with detection of luminescence, up to a total detection time of 40 min.

[2] = Time-resolved light-induced isomerization by 1H NMR and LCMS
From the text: The kinetic properties of light-induced isomer switching were further characterized using these wavelengths. Switching was monitored by ^1H NMR (Figures 2B and 2D) and LCMS (Figures 2C and 2E) analyses in tandem. The ^1H NMR signal of the ortho C-H proton adjacent to the ether function was selected as a clearly resolved signal to quantify the level of isomerization (Figure 2D).
NMR, LC and UV-Vis spectra were plotted in GraphPad Prism 8 and were visualized by fitting the data to a second order polynomial with a smooth function, using 4 neighboring data points. […] For the time-resolved isomerization experiments, integration of the peak areas was performed with Shimadzu and MestreNova software for LC and NMR integration, respectively. The normalized peak areas over time were fitted by non-linear regression in GraphPad Prism 8 using a one-phase exponential model which yields the t1/2 value of the isomerization reaction and the extrapolated PSS (i.e. the asymptote).

With `CC(C)NCC(O)COc1cccc(N=Nc2ccccc2)c1` (stereo not shown) [Opto-prop-2] the “t1/2 20°C (thermal relaxation of cis-isomer)” value [1] was over 240 h, the “β2-AR activity (β-arrestin2 recruitment) after 360 nm light flashes” value (β2-AR) was “a drop in β2-AR activity is observed” and the “isomerization half-life, 360 nm” value ([2]; 1H NMR, 10 mM in DMSO-d6) was 4 min. For the same compound, the “isomerization half-life, 434 nm” value ([2]; 1H NMR, 10 mM in DMSO-d6) was 3 min, the “cis-isomer at PSScis” value ([2]; 1H NMR, 360 nm, 10 mM in DMSO-d6) was 86 mol% and the “cis-isomer at PSStrans” value ([2]; 1H NMR, 434 nm, 10 mM in DMSO-d6) was 20 mol%. The “fitted cis-isomer at PSScis” value ([2]; LCMS, 360 nm) was 94%, the “isomerization half-life to PSScis” value ([2]; LCMS, 360 nm) was 4 min and the “fitted cis-isomer at PSStrans” value ([2]; LCMS, 434 nm) was 23%. For the same compound, the “isomerization half-life to PSStrans” value ([2]; LCMS, 434 nm) was 3 min.
